Article PMC5371653, “Pharmacological and Biochemical Characterization of TLQP-21 Activation of a Binding Site on CHO Cells” (Frontiers in Pharmacology, 2017)
Where two headings read alike, the source gives them in different places.

Experiments:
CHO cells [1] = type: cell-based; settings: for intracellular Ca2+ levels, maximal response (ΔF/F): peptide 1 μM, vs. HBSS, at least five wells
Experimental: CHO cells were plated at 20.000 cells/well into black walled, clear bottom 96-well plate (Corning, Germany) and cultured one day up to 80–90% of confluence. […] TLQP-21, TLQP-62, TLQP-8, HHPD-41, HFHH-10, and LRPS-21 were diluted in HBSS solution and injected into the wells by an automated injector system. […] Depletion of Ca^2+ from the ER leads to Ca^2+ entry from outside the cell by activation of Store-Operated Channels (SOCs).

CHO cells [2] = settings: ref Cassina et al., 2013; cited from earlier work
Source text: Among several bioactive peptides derived from VGF, TLQP-21 (VGF^556-576) is a 21 amino acid peptide which has been immunopurified from brain tissues ([Bartolomucci et al., 2006]). Despite many efforts to characterize the physiological effects of TLQP-21, little is known about its molecular targets. Nonetheless, adipocytes express a high affinity binding site for TLQP-21 and in these cells TLQP-21 stimulates a pro-lipolytic effect ([Possenti et al., 2012]).

[3] = test system: TLQP-21 binding sites on CHO cell membranes; test: TLQP-21 binding assay with [125I]-YATL-23 on crude CHO cell membranes; settings: competition with 1 nM [125I]-YATL-23, competitor 10 pM to 0.1 μM
Experimental: Binding of TLQP-21 to crude membranes (30,000 × g pellet) obtained from CHO cells was carried out using [^125I]-YATL-23 as ligand. YATL-23 was radioiodinated (specific activity, 2000 Ci/mmol) using the lactoperoxidase method ([Muccioli et al., 1998]; [Muccioli et al., 2001]) by Perkin Elmer (Milan, Italy) and purified by reverse phase high-performance liquid chromatography. For the single point binding assay, cell membranes (corresponding to 100 μg membrane protein) were incubated in triplicate at 23°C, unless otherwise noted, for 4 h under constant shaking with 0.5 nM [^125I]-YATL-23 in a final volume of 0.5 ml assay buffer (50 mM Tris, 2.5 mM EGTA, 0.002% bacitracin, 0.1% bovine serum albumin, titrated to a final pH of 7.4 with HCl). Non-specific binding was measured in parallel incubations with 1 μM unlabelled YATL-23 to displace the radioligand. Similar results were obtained using TLQP-21 to displace the radioligand. The binding reaction was terminated by the addition of ice-cold assay buffer, followed by rapid filtration through Whatman GF/B filters as previously reported ([Muccioli et al., 1998]) and the radioactivity bound to membranes was measured by a Packard auto-γ-counter. Specific binding-values were calculated as the difference obtained subtracting non-specific from total binding. Specific binding was expressed as a percentage of the total radioactivity added. […]

[4] = inhibitor 10 μM, 20 min pretreatment, then 1 μM TLQP-21

HFHHALPPAR [HFHH-10, 10 amino acids at the C-terminal of TLQP-21]
intracellular Ca2+ levels, maximal response (ΔF/F) (CHO cells [1]; repeated at least three times): effectively stimulated

COc1ccc(CCCOC(Cn2ccnc2)c2ccc(OC)cc2)cc1 (stereo not shown) [SKF-96365]
decrement in TLQP-21-mediated intracellular Ca2+ mobilization (CHO cells [1]; [4]): about 36%

LRPSHTRPAHQSFARP LHRPA [LRPS-21, scrambled control peptide with the same amino acid residues as TLQP-21]
intracellular Ca2+ levels, maximal response (CHO cells [1]; peptide 1 nM–10 μM, TLQP-21 significant (P < 0.05) at 0.1 μM–10 μM, at least six wells, repeated at least three times): did not stimulate | stimulation of intracellular Ca2+ in CHO cells (CHO cells [2]): did not stimulate | inhibition of [125I]-YATL-23 binding to CHO membranes [3]: not inhibited

Cyclosporine A [CsA]
basal levels of intracellular Ca2+ (CHO cells [1]; 2 μM, before TLQP-21): did not modify | effect on TLQP-21 Ca2+ stimulation (CHO cells [1]; inhibitor 2 μM, 15 min preincubation, then 1 μM TLQP-21): did not affect

COc1ccc2c(c1)CC[C@@H]1[C@@H]2CC[C@]2(C)[C@@H](NCCCCCCN3C(=O)C=CC3=O)CC[C@@H]12 [U73122]
reduction of TLQP-21 stimulation of intracellular Ca2+ mobilization (CHO cells [1]; inhibitor 10 μM, 10 min preincubation, then 1 μM TLQP-21): about 82%

HHPDLEAQARRAQEEADAEERRLQEQEELENYIEHVLLHRP [HHPD-41, VGF-derived peptide from processing of TLQP-62]
intracellular Ca2+ levels, maximal response (ΔF/F) (CHO cells [1]; repeated at least three times): ineffective

TLQPPASSRRRHFHHALPPARHHPDLEAQARRAQEEADAEERRLQEQEELENYIEHVLLHRP [TLQP-62]
intracellular Ca2+ levels, maximal response (ΔF/F) (CHO cells [1]; repeated at least three times): failed to stimulate any significant increase

TLQPPASS [TLQP-8, 8 amino acids at the N-terminal of TLQP-21]
intracellular Ca2+ levels, maximal response (ΔF/F) (CHO cells [1]; repeated at least three times): slight and non-significant increase

O=C(O)CN(CCOCCOCCN(CC(=O)O)CC(=O)O)CC(=O)O [EGTA]
decrement in TLQP-21-mediated intracellular Ca2+ mobilization (CHO cells [1]; chelator 1 mM, 30 min pretreatment, then 1 μM TLQP-21): ~45%

CC(C)C[C@H](NC(=O)[C@@H](N)[C@@H](C)O)C(=O)N[C@@H](CCC(N)=O)C(=O)N1CCC[C@H]1C(=O)N1CCC[C@H]1C(=O)N[C@@H](C)C(=O)N[C@@H](CO)C(=O)N[C@@H](CO)C(=O)N[C@@H](CCCNC(=N)N)C(=O)N[C@@H](CCCNC(=N)N)C(=O)N[C@@H](CCCNC(=N)N)C(=O)N[C@@H](Cc1c[nH]cn1)C(=O)N[C@@H](Cc1ccccc1)C(=O)N[C@@H](Cc1c[nH]cn1)C(=O)N[C@@H](Cc1c[nH]cn1)C(=O)N[C@@H](C)C(=O)N[C@@H](CC(C)C)C(=O)N1CCC[C@H]1C(=O)N1CCC[C@H]1C(=O)N[C@@H](C)C(=O)N[C@@H](CCCNC(=N)N)C(=O)O [TLQP-21]
EC50 (CHO cells [1]; CHO cells, stated as 1 μM being close to the EC50, read-out: EC50 of intracellular Ca2+ mobilization): ~1000 nM

C/C=C(/C)C(=O)O[C@H]1C(C)=C2[C@H]([C@@H]1OC(=O)CCCCCCC)[C@@](C)(OC(C)=O)C[C@H](OC(=O)CCC)[C@@]1(O)[C@H]2OC(=O)[C@@]1(C)O [TG, thapsigargin]
reduction of TLQP-21-mediated increase of intracellular Ca2+ (CHO cells [1]; inhibitor 2 μM, 20 min preincubation, then 1 μM TLQP-21): 56%

NCCOB(c1ccccc1)c1ccccc1 [2-APB, 2-Aminoethyl diphenylborinate]
decrement of TLQP-21 intracellular Ca2+ mobilization (CHO cells [1]; inhibitor 75 μM, 15 min preincubation, then 1 μM TLQP-21): about 79%

Cc1nnsc1C(=O)Nc1ccc(-n2nc(C(F)(F)F)cc2C(F)(F)F)cc1 [YM-58483]
decrement in TLQP-21-mediated intracellular Ca2+ mobilization (CHO cells [1]; [4]): ~27%
